Reference: patent US20250041571A1, “DRUG COATED MEDICAL DEVICES” (Vanderbilt University, priority 2023, published 2025)
Entries after “also recorded” stand apart in the source; their conditions may differ.

Legend:
[1] = tested on: cells of ex vivo rat aortas (isolated SMCs); test: Cellular uptake of fluorescent MK2i in treated rat aortas by flow cytometry; format: cell-based; conditions: flow cytometry 1 hour after treatment
Procedure: Flow Cytometry: After aorta treatment, samples were incubated in DMEM (+HEPES, +L-glutamine, +3% FBS, +1% Antibiotic/Antimycotic) for 1 hour to allow for cell uptake. The aortas were subsequently transferred to 500 μL of cold PBS+1% FBS and cut with scissors into small (˜1 mm) sized pieces. Digestion media in DMEM was then added to the PBS/tissue tube (500 μL) to achieve a final enzyme concentration of 0.7 mg/mL liberase, 4 mg/mL collagenase, and 0.2 mg/mL DNase and the tubes were placed in a 37° C. incubator on a shaker for ˜90 minutes or until digestion was apparent. After incubation, the samples were filtered through a 70 μm cell strainer and centrifuged at 500 g for 8 minutes. […] Cells were read for fluorescence on a Guava easyCyte HT and the resulting data was processed in FlowJo.
MK2i tissue transfer and cell uptake: Coated balloons (6 layers, 100 μM MK2i, 10 μM PPAA) were inflated in ex vivo rat aortas for 3 minutes and samples were cryosectioned to visualize fluorescent MK2i delivery (FIG. 9A, FIG. 9B, and FIG. 9C). ROIs were drawn around the vessel wall and total MK2i fluorescence was normalized to vessel wall cross sectional area. […] Cellular uptake was also measured with flow cytometry, quantifying cellular association of fluorescent MK2i within the treated tissue. […]

[2] = tested on: ex vivo rat aortas; test: MK2i transfer from coated balloons to ex vivo rat aorta (confocal fluorescence, tissue lysate fluorescence); format: in vitro ADME
Procedure: Aorta treatment: Harvested aortas were damaged with an angioplasty balloon prior to treatment (3×, 15 seconds each, 25% overstretch). Coated balloons were then inserted into the aorta and pressurized for 3 minutes in DMEM (+HEPES, +L-glutamine, +3% FBS, +1% Antibiotic/Antimycotic), with deflation and reinflation at each minute mark to allow for maximum release and tissue transfer. After 3 minutes, the balloon was deflated and removed. The treated artery was then washed briefly with DMEM to remove excess MK2i and then processed for further experimentation or data collection. […]
Delivery visualization and quantification: Immediately after aorta treatment, samples were placed into OCT and frozen for cryosectioning. […] Then, total intensity of MK2i-568 within the arterial wall was calculated by subtracting the intensity of the inside segment from the intensity of the total segment. […]
MK2i Delivery and Retention Quantification: Tissue lysates prepped for western blotting were measured for presence of fluorescently labeled MK2i to quantify tissue delivery and retention. Tissue lysate fluorescence was measured on a TECAN Infinite M1000 Pro plate reader and compared to a standard curve of fluorescent MK2i to calculate tissue MK2i concentration. […]

[3] = Balloon loading and release quantification (3 min PBS soak, DMSO strip, fluorescence); format: physicochemical
Procedure: Balloon loading and release quantification: Angioplasty balloons (2.5 mm×20 mm) were coated with PPAA and MK2i-568 and then soaked in PBS with calcium and magnesium for 3 minutes to measure balloon release. The balloons were then soaked again in DMSO under sonication for 3 minutes to remove any remaining MK2i layers. The fluorescence of the PBS and DMSO solutions was measured on a TECAN Infinite M1000 Pro plate reader and compared to a standard curve of MK2i-568 in PBS and DMSO, respectively.
Balloon Loading and Release: Balloon release and total loading was quantified for different lactosucrose (LS) coating conditions. […] The fluorescence of these two solutions was then measured and used to quantify MK2i concentration (FIG. 5B and FIG. 5C).
Increasing balloon loading and release: To increase the amount of MK2i loaded onto and released from the balloons, two strategies were compared. […] Loading and release were measured as before—3 min wash in PBS followed by sonication in DMSO. The solution fluorescence was measured to determine loading and release.
Balloon loading and release quantification: Angioplasty balloons (2.5 mm×20 mm, Maverick OTW, Boston Scientific) were coated with PPAA and MK2i-568 and then soaked in PBS with calcium and magnesium for 3 minutes to measure balloon release. […]

[4] = tested on: ex vivo rat aortas; test: Immunofluorescence of balloon damaged rat aortas after 7 d in flow loop bioreactor; format: cell-based; conditions: 7 d after balloon injury

| MK2i release from balloon ([3]; 3 minutes in PBS) | MK2i loading (comparison in words) ([3]; between coating conditions) | Molecule | cellular / intracellular uptake of MK2i [1] | MK2i transfer to the tissue (fluorescence in vessel wall) ([2]; immediately after 3 min balloon inflation) | depth of MK2i delivery into the vessel wall (intensity profile) ([2]; immediately after balloon inflation) | MYH expression [4] | SM22 expression [4] |
| --- | --- | --- | --- | --- | --- | --- | --- |
| did not yield any differences | did not yield any differences | OC[C@H]1O[C@@H](O[C@H]2[C@H](O)[C@@H](O)[C@@H](O[C@]3(CO)O[C@H](CO)[C@@H](O)[C@@H]3O)O[C@@H]2CO)[C@H](O)[C@@H](O)[C@H]1O [LS, lactosucrose] | benefited; also recorded: significantly increased the intracellular uptake | benefited; also recorded: increased MK2i transfer to the tissue | modest effect on increasing the depth of delivery | – | – |
| – | – | MAPKAP Kinase II inhibitory peptide [MK2i] | – | – | – | preserving expression | preserving expression |
